Experiment in all cases: Expanded lung cancer cell line proliferation assay
Holding throughout (format): cell-based

One assay relates to A549. The settings on record: Homo sapiens; A549, 72 h, average of PrestoBlue and Cell Titer Glo; AKR1C3 3017.9 TPM; read-out: Absolute Qualified AC50. From the text: (§1) Cellular Proliferation Assay to Assess Compound Activity in an Expanded Panel of 57 NRF2 Pathway Mutant and Wild Type Lung Cancer Cell Lines.
(§2) Both the PrestoBlue Cell Viability Reagent and Cell Titer Glo were multiplexed together as the final assay readout. PrestoBlue is a cell permeable resazurin-based solution that utilizes the reducing power of living cells to quantitatively measure their proliferation. Cell Titer Glo measures the amount of ATP present, an indicator of metabolically active cells.
(§3) Expanded Lung Cancer Cell Line Proliferation Assay Outline, Analysis and Profiling Results
(§4) Cells were seeded into 384 well assay plates (Greiner Bio-One, Catalog #781080) using the Thermo Scientific Matrix WellMate microplate dispenser and Thermo Scientific Matrix WellMate small bore disposable tubing cartridges (Catalog #201-30002) in 30 μl of growth media (RPMI-1640 supplemented with 10% fetal bovine serum and 1% penicillin/streptomycin) per well (1000 to 2000 cells/well depending on doubling time). Following cell plating, assay plates were placed into tissue culture incubator at 37° C./5% CO2 overnight. The next day one assay plate for each cell line was used for a Day 0 Cell Titer Glo and PrestoBlue readout. 3 μl of PrestoBlue Cell Viability Reagent (Thermo Scientific, Catalog #A13262) was added to each well and then assay plates were incubated at 37° C./5% CO2 for 30 minutes prior to fluorescence readout on the EnVision 2105 multimode plate reader (Perkin Elmer). Following the PrestoBlue readout 18 μl of Cell Titer Glo (Promega, Catalog #G7572) was then added to each well, allowing plates to incubate at room temperature for 10 minutes prior to luminescence readout on the EnVision. Compound was then added to the remaining assay plates (each cell line run in triplicates) using the Labcyte Inc Echo 555 acoustic liquid handler. Compounds were arrayed into a Labcyte Inc Echo qualified 384 well LDV microplate (Cat #LP-0200-GNF10). Compounds were serially diluted 1:3.16 to generate an 8 point dose response for a final top concentration of 1 μM. DMSO (0.3%) was used as the neutral control (NC) and MG132 (30 μM) was used as the active control (AC). 90 nl of compounds were added to 30 μl of cells using the Labcyte Inc Echo 555 acoustic liquid handler for a final DMSO assay concentration of 0.3%. Following compound addition, assay plates were spun down in a tabletop centrifuge at 500 rpm for 1 minute and then placed into tissue culture incubator at 37° C./5% CO2 for 72 h. Following the 72 h incubation, all assay plates were readout using PrestoBlue and Cell Titer Glo using the same conditions previously described for the Day 0 readout. The Day 0 readout (untreated cells) was used to compare to the 72 h DMSO treated samples on each assay plate as a way of tracking each cell line's fold growth. NC1 control based normalization was used for data analysis in Helios, which incorporates the DMSO neutral control (NC) and MG132 active control (AC) for generating dose response curves that are then used to calculate the Absolute Qualified AC50 calls for each compound and cell line.
(§5) NC1 normalization calculation model: NC1: xn=±(x−NC)/(AC−NC)
(§6) +/− is set by the inhibition type parameter setting where NC and AC are averages (mean or median) over the corresponding NC and AC well values. The Qualified Absolute AC50 values for Compound 36 and Compound 40 are listed in the table below and are represented as the average activity in both the PrestoBlue and Cell Titer Glo assay readouts.
(§7) Absolute Qualified AC50 Values Listed Below are a Representation of Each Compounds' Average Activity in Both the PrestoBlue and Cell Titer Glo Assay Readouts.
For orientation: In ATP-based viability assays light output follows the ATP content of the culture.

The subject of the next assay is CAL-12T. Conditions: Homo sapiens, 72 h, average of PrestoBlue and Cell Titer Glo, AKR1C3 23.6 TPM, read-out: Absolute Qualified AC50.
Excerpt: as §1, §2, §3, §4, §5, §6, §7

The test system of a further assay is HLC-1. The settings on record: HLC-1, 72 h, average of PrestoBlue and Cell Titer Glo; AKR1C3 expression: no data available; read-out: Absolute Qualified AC50.
Excerpt: as §1, §2, §3, §4, §5, §6, §7

A further assay concerns LK2. The settings on record: Homo sapiens, LK-2; LK2, 72 h, average of PrestoBlue and Cell Titer Glo; AKR1C3 1107 TPM; read-out: Absolute Qualified AC50.
Excerpt: as §1, §2, §3, §4, §5, §6, §7

The test system of a further assay is NCI-H1299. Conditions: Homo sapiens; NCI-H1299, 72 h, average of PrestoBlue and Cell Titer Glo; AKR1C3 1.3 TPM; read-out: Absolute Qualified AC50.
Excerpt: as §1, §2, §3, §4, §5, §6, §7

The test system of the next assay is NCI-H1339. The settings on record: NCI-H1339, 72 h, average of PrestoBlue and Cell Titer Glo; AKR1C3 5.2 TPM; read-out: Absolute Qualified AC50.
Excerpt: as §1, §2, §3, §4, §5, §6, §7

For the next assay, the system named is NCI-H1581. The settings on record: Homo sapiens; NCI-H1581, 72 h, average of PrestoBlue and Cell Titer Glo; AKR1C3 1.9 TPM; read-out: Absolute Qualified AC50.
Excerpt: as §1, §2, §3, §4, §5, §6, §7

Another assay relates to NCI-H1650. Conditions: Homo sapiens; NCI-H1650, 72 h, average of PrestoBlue and Cell Titer Glo; AKR1C3 1.3 TPM; read-out: Absolute Qualified AC50.
Excerpt: as §1, §2, §3, §4, §5, §6, §7

In a further assay the test system is NCI-H1838. The settings on record: Homo sapiens; NCI-H1838, 72 h, average of PrestoBlue and Cell Titer Glo; AKR1C3 1.8 TPM; read-out: Absolute Qualified AC50.
Excerpt: as §1, §2, §3, §4, §5, §6, §7

In a further assay the test system is NCI-H2023. The settings on record: NCI-H2023, 72 h, average of PrestoBlue and Cell Titer Glo; AKR1C3 1424.8 TPM; read-out: Absolute Qualified AC50.
Excerpt: as §1, §2, §3, §4, §5, §6, §7

Another assay concerns NCI-H2030. Conditions: Homo sapiens; NCI-H2030, 72 h, average of PrestoBlue and Cell Titer Glo; AKR1C3 232.7 TPM; read-out: Absolute Qualified AC50.
Excerpt: as §1, §2, §3, §4, §5, §6, §7

The next assay relates to NCI-H2286. The settings on record: Homo sapiens; NCI-H2286, 72 h, average of PrestoBlue and Cell Titer Glo; AKR1C3 0.9 TPM; read-out: Absolute Qualified AC50.
Excerpt: as §1, §2, §3, §4, §5, §6, §7

The next assay relates to NCI-H322. The settings on record: NCI-H322, 72 h, average of PrestoBlue and Cell Titer Glo; AKR1C3 21 TPM; read-out: Absolute Qualified AC50.
Excerpt: as §1, §2, §3, §4, §5, §6, §7

The next assay concerns SBC5. The settings on record: Homo sapiens, SBC-5; SBC5, 72 h, average of PrestoBlue and Cell Titer Glo; AKR1C3 5.5 TPM; read-out: Absolute Qualified AC50.
Excerpt: as §1, §2, §3, §4, §5, §6, §7

AC50 data for 2 molecules are collected here from patent US11970497B2, “Tricyclic AKR1C3 dependent KARS inhibitors” (Novartis AG, priority 2019, dated 2024).

On to `O=C1CC2(CCN(C(=O)NCc3ccc(F)cc3)CC2)Nc2ccc(F)cc21` [Example 40], for which the AC50 (usually the concentration at which the activity in the assay is half-maximal) is 56 nM in the assay with A549; over 1000 nM with CAL-12T; over 1000 nM in the assay with HLC-1; over 1000 nM in the assay on LK2; over 1000 nM in the assay with NCI-H1299; over 1000 nM in the assay with NCI-H1339. In addition, the AC50 is over 1000 nM in the assay on NCI-H1581; over 1000 nM with NCI-H1650; over 1000 nM in the assay on NCI-H1838; 63 nM with NCI-H2023; 364 nM in the assay on NCI-H2030; over 1000 nM in the assay with NCI-H2286. Also, the AC50 with NCI-H322 and in the assay with SBC5 was over 1000 nM in each case.
Turning to `CN1c2ccc(F)cc2C(=O)CC12CCN(C(=O)NCc1ccc(F)c(NCCO)c1)CC2` [Example 36, 6′-fluoro-N-(4-fluoro-3-((2-hydroxyethyl)amino)benzyl)-1′-methyl-4′-oxo-3′,4′-dihydro-1′H-spiro[piperidine-4,2′-quinoline]-1-carboxamide], the AC50 with A549 was 301 nM; in the assay with CAL-12T, over 1000 nM; with HLC-1, over 1000 nM; in the assay on LK2 it was over 1000 nM; in the assay on NCI-H1299 it was over 1000 nM; with NCI-H1339, over 1000 nM. In addition, the AC50 with NCI-H1581 was over 1000 nM; in the assay with NCI-H1650, over 1000 nM; with NCI-H1838, over 1000 nM; in the assay with NCI-H2023 it was 347 nM; with NCI-H2030, 648 nM; with NCI-H2286, over 1000 nM. Also, the AC50 with NCI-H322 and in the assay on SBC5 was over 1000 nM each time.
